The target of series [1] is Protein Wnt-3a (Homo sapiens) (UniProt P56704). In words: Inhibition of Wnt3a in human SW480 cells assessed as LEF1 level at 3.3 uM incubated for […] by quantitative real-time PCR analysis relative to control. In kind it is cell-based. Details: scale not given: the % may be the effect or the level left.
Series [2] has the same target. In words: Inhibition of Wnt3a in human SW480 cells assessed as cyclin D1 level at 10 uM incubated for […] by quantitative real-time PCR analysis relative to control. Type of series: cell-based. On the set-up: scale not given: the % may be the effect or the level left.
Series [3] shares this target. In words: Inhibition of Wnt3a in human SW480 cells assessed as LEF1 level at 10 uM incubated for […] by quantitative real-time PCR analysis relative to control. In kind it is cell-based. Details: scale not given: the % may be the effect or the level left. (In qPCR the cycle at which signal appears reflects the starting amount.)
The target is the same in series [4]. In words: Inhibition of Wnt3a in human SW480 cells assessed as cyclin D1 level at 3.3 uM incubated for […] by quantitative real-time PCR analysis relative to control. On the set-up: scale not given: the % may be the effect or the level left. Type of series: cell-based.
Series [5] addresses beta-catenin-B-cell lymphoma 9 protein complex (Homo sapiens) (UniProt P35222+O00512). In words: Disruption of full length beta-catenin/BCL9 interaction in human HCT116 cells incubated for 24 hrs by co-immunoprecipitation assay. In kind it is cell-based. The note with it: HCT-116.
For another series, the system named is HCT-116. In words: Antiproliferative activity against human HCT116 cells incubated for 72 hrs by MTS assay. The note with it: HCT-116, 72 h. Type of series: functional, cell-based. Background: Tetrazolium dyes change colour on reduction, which living cells bring about.
For series [6], the system named is SW480. In words: Antiproliferative activity against human SW480 cells harboring empty pcDNA3.1 vector incubated for 72 hrs by MTS assay. In kind it is functional, cell-based. The conditions noted are these: SW480, 72 h.
The subject of series [7] is SW480. In words: Inhibition of Wnt/beta-catenin transactivation signalling in human SW480 cells harboring mutant tcf4 binding sites assessed as relative activity at 6.25 uM incubated for 24 hrs by FOPFlash luciferase assay relative to control. Type of series: cell-based. Details: scale not given: the % may be the effect or the level left.
For series [8], the system named is SW480. In words: Antiproliferative activity against human SW480 cells harboring beta-catenin pcDNA3.1 vector incubated for 72 hrs by MTS assay. Type of series: functional, cell-based. The note with it: SW480, 72 h.
The target of series [9] is T1, Cadherin-1 (Homo sapiens) (UniProt P12830).
T1 sequence (whole entry): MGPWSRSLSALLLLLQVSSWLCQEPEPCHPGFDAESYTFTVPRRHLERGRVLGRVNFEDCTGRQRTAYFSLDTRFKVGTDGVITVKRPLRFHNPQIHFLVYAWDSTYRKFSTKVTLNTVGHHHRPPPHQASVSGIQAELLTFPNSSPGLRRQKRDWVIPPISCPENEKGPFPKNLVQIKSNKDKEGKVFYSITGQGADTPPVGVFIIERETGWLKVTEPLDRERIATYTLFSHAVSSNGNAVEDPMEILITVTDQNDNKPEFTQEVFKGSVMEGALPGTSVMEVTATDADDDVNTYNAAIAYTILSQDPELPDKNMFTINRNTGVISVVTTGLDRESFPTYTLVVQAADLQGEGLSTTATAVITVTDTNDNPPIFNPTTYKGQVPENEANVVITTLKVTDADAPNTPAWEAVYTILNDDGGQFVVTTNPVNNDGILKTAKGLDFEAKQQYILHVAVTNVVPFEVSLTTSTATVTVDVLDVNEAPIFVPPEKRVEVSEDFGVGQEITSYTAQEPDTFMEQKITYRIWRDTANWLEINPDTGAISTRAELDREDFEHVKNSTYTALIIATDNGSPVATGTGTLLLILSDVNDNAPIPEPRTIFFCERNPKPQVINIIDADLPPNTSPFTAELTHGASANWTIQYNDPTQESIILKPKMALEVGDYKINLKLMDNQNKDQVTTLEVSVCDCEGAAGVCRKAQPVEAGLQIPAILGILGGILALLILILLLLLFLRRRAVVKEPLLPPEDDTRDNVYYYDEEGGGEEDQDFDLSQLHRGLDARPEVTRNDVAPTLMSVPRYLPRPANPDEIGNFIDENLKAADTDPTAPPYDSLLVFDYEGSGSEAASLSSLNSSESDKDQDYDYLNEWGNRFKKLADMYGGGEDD
In words: Disruption of full length beta-catenin/E-cadherin interaction in human HCT116 cells incubated for 24 hrs by co-immunoprecipitation assay. In kind it is cell-based. The conditions noted are these: HCT-116.

The target in series [10] is Protein Wnt-3a (Homo sapiens) (UniProt P56704). In words: Inhibition of Wnt3a in human SW480 cells assessed as Axin2 level at 10 uM incubated for […] by quantitative real-time PCR analysis relative to control. Type of series: cell-based. Details: scale not given: the % may be the effect or the level left.
The nature of series [11]: Downregulation of HPRT level in human SW480 cells at 10 uM incubated for […] by quantitative real-time PCR analysis relative to control. In kind it is ADME, cell-based. The note with it: sw480, 10 µM.
Another series concerns MDA-MB-468. In words: Antiproliferative activity against human MDA-MB-468 cells incubated for 72 hrs by MTS assay. In kind it is functional, cell-based. The conditions noted are these: MDA-MB-468, 72 h.
For series [12], the target named is Protein Wnt-3a (Mus musculus) (UniProt P27467). In words: Inhibition of mouse wnt3a expressed in human MDA-MB-231 cells assessed as HPRT level at 30 uM incubated for […] by quantitative real-time PCR analysis relative to control. Type of series: cell-based. Details: scale not given: the % may be the effect or the level left.
The target is the same in series [13]. In words: Inhibition of mouse wnt3a expressed in human MDA-MB-231 cells assessed as Axin2 level at 30 uM incubated for […] by quantitative real-time PCR analysis relative to control. Type of series: cell-based. On the set-up: scale not given: the % may be the effect or the level left.
The target of series [14] is Protein Wnt-3a (Homo sapiens) (UniProt P56704). In words: Inhibition of Wnt3a in human SW480 cells assessed as cyclin D1 level at 30 uM incubated for […] by quantitative real-time PCR analysis relative to control. In kind it is cell-based. Details: scale not given: the % may be the effect or the level left.

Calls of active or inactive are those of the source. The calls are words filed in the database; no cut-off is given here.

Sequence of Protein Wnt-3a (Homo sapiens) (P56704 whole entry): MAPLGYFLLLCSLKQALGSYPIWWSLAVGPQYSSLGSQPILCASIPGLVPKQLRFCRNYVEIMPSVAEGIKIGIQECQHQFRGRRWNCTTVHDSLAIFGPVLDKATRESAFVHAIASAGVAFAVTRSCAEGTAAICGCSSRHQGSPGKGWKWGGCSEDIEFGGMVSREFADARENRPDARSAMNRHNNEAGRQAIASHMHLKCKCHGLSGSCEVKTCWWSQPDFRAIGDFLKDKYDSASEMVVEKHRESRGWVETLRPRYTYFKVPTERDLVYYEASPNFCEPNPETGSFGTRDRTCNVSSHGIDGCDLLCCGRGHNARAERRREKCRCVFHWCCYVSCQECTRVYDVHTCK
Sequence of Protein Wnt-3a (Mus musculus) (P27467 whole entry): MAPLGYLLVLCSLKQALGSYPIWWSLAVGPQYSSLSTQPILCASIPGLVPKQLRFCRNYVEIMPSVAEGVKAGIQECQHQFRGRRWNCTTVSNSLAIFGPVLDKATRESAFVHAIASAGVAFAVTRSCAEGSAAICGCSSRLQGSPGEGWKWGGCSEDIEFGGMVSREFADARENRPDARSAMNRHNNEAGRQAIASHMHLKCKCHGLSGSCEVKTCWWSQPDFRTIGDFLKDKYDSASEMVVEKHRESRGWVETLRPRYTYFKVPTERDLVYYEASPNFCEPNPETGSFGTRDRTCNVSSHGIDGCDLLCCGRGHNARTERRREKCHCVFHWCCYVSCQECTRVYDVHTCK

As for `CC(C)(Oc1cccc(N2CCC[C@H](C(=O)N(Cc3ccc(-c4cccs4)cc3)C3CC3)C2)c1)C(=O)NS(=O)(=O)c1ccc(C#N)cc1`, the Activity was 80% in series [1]; 40% in series [2]; 77% in [3]; 53% in [4]; “Dose-Dependent Effect” in [5]; 97% in the series on SW480 [7]. In addition, the Activity was 72% in [10]; 102% in [11]; 99% in series [12]; 50% in series [13]; 31% in series [14]. For the same compound, the half-maximal inhibitory concentration (IC50) – broadly, the concentration at which inhibition is half-maximal – in the series with HCT-116 came to 29.6 µM; in the series on SW480 [6] it was 19 µM; in the series on SW480 [8], 86 µM; in the series with MDA-MB-468, 17.8 µM. The result in series [9] was inactive.

These data come from ChEMBL document CHEMBL4823263, “Discovery of 2-(3-(3-Carbamoylpiperidin-1-yl)phenoxy)acetic Acid Derivatives as Novel Small-Molecule Inhibitors of the β-Catenin/B-Cell Lymphoma 9 Protein-Protein Interaction” (J Med Chem, 2021).
